The results in this text go back to publication PMC2806030, “Inhibition of mammalian S6 kinase by resveratrol suppresses autophagy” (Aging (Albany NY), 2009).

Common to all, as to experiment: biochemical
What all share (design): Upstate KinaseProfiler in vitro kinase activity assay, per cent of DMSO control
Holding throughout (conditions): read-out: Activity (% of Control)

The target of one test is EphB2(h) (Homo sapiens, UniProt P29323). As for the experimental part: (§1) Kinase profile and kinase assay. A Kinase profile against 100 kinases listed for resveratrol at 20 μM was generated utilizing Upstate's KinaseProfiler™ service. Assay protocols for each kinase are available from Upstate (Lake Placid, NY). In vitro kinase assay was performed as described previously. Briefly, HEK293 cells were transfected with HA-S6K1 wt, HA-S6K1 K100R, or vector as indicated. Cells were treated with 1 μg/ml insulin for 10 minutes prior to harvesting in PBS + 0.5% NP-40 + protease and phosphatase inhibitors. 125 μg of lysate per sample was immunoprecipitated using 0.5 μg/sample of anti-HA High-Affinity (Roche, Basel Switzerland). Beads from immunoprecipitations were washed three times in lysis buffer and once in kinase buffer, and kinase assays were performed with recombinant GST-S6 as substrate (1 μg per assay). In the indicated lanes varying doses of resveratrol or DMSO control were added to the reaction prior to addition of the GST-S6 substrate. All samples were subjected to SDS-PAGE, and 32P incorporation was quantified by using a Bio-Rad (Hercules, CA) Phosphor-Imager and subsequent analysis with ImageJ (NIH).  Figure 4. Resveratrol inhibits S6K1 in vitro. (A) Structural similarity between resveratrol and quercetin, a known kinase inhibitor. (B) Kinase inhibition profile for resveratrol at 20 μM obtained using KinaseProfiler™ (Upstate). Dashed line represents 100% activity as compared to control. Black filled-in bar on the graph indicates S6K1. Complete data set is provided in Supplementary Table 1. Error bars represent s.d.m. (C) Phosphorylation of recombinant GST-tagged S6 by immunoprecipitated HA-S6K1 under increasing concentrations of resveratrol (Res). Autoradiograph depicts S6K1 phosphorylation of GST-S6. (D) Average of three separate kinase assay experiments as performed in (C). Densitometry was performed using NIH ImageJ. Error bars represent s.e.m. […] Therefore, we hypothesized that the effect of resveratrol on autophagy could be related to inhibition of one or more upstream kinases. To test this, we performed an in vitro kinase screen and determined an inhibition profile for resveratrol. […] With the exception of S6K1, these kinases play primary roles in the hematopoietic system, and were thus viewed as unlikely to have been responsible for the effect we were studying. […] On the other hand, S6K1 is known to play a requisite role in the regulation of autophagy in Drosophila, making it a promising candidate for the in vivo target of resveratrol that is responsible for inhibition of autophagy.

The target of a further test is T1, Pim-2 (Homo sapiens, UniProt Q9P1W9).
T1 construct: gene PIM2
The method, then:
as §1

The next test addresses T2, PI 3-Kinaseβ(h) (Homo sapiens, UniProt P42338).
T2 construct: gene PIK3CB
As for the experimental part:
as §1

Another test deals with T3, Aurora-A(h) (Homo sapiens, UniProt O14965).
T3 construct: gene AURKA
The method, then: as §1

The target in the next test is T4, ALK4(h) (Homo sapiens, UniProt P36896).
T4 construct: gene ACVR1B
The method, then:
as §1

The next test addresses Flt1(h) (Homo sapiens, UniProt P17948). The method, then:
as §1

In another test the target is CDK7/cyclinH/MAT1(h) (Homo sapiens, UniProt P50613). As for the experimental part: as §1
The target in another test is T5, JNK3(h) (Homo sapiens, UniProt P53779).
T5 construct: gene MAPK10
As for the experimental part:
as §1

The target in another test is T6, TAK1(h) (Homo sapiens, UniProt O43318).
T6 construct: gene MAP3K7
As for the experimental part: as §1

For a further test, the target named is T7, PDGFRα(h) (Homo sapiens, UniProt P16234).
T7 construct: gene PDGFRA
The method, then:
as §1

The target in the next test is T8, IGF-1R(h) (Homo sapiens, UniProt P08069).
T8 construct: gene IGF1R
As for the experimental part:
as §1

For a further test, the target named is EGFR(h) (Homo sapiens, UniProt P00533). As for the experimental part:
as §1

The target of the next test is PAK6(h) (Homo sapiens, UniProt Q9NQU5). As for the experimental part:
as §1

Another test has as its target T9, PKCθ(h) (Homo sapiens, UniProt Q04759).
T9 construct: gene PRKCQ
The method, then: as §1

The target of the next test is T10, Fms(h) (Homo sapiens, UniProt P07333).
T10 construct: gene CSF1R
As for the experimental part:
as §1

The next test concerns the target T11, CDK5/p35(h) (Homo sapiens, UniProt Q00535).
T11 construct: p35
As for the experimental part:
as §1

A further test concerns the target T12, TrkA(h) (Homo sapiens, UniProt P04629).
T12 construct: gene NTRK1
As for the experimental part: as §1

In a further test the target is DAPK1(h) (Homo sapiens, UniProt P53355). The method, then:
as §1

T10 sequence (P07333 whole entry): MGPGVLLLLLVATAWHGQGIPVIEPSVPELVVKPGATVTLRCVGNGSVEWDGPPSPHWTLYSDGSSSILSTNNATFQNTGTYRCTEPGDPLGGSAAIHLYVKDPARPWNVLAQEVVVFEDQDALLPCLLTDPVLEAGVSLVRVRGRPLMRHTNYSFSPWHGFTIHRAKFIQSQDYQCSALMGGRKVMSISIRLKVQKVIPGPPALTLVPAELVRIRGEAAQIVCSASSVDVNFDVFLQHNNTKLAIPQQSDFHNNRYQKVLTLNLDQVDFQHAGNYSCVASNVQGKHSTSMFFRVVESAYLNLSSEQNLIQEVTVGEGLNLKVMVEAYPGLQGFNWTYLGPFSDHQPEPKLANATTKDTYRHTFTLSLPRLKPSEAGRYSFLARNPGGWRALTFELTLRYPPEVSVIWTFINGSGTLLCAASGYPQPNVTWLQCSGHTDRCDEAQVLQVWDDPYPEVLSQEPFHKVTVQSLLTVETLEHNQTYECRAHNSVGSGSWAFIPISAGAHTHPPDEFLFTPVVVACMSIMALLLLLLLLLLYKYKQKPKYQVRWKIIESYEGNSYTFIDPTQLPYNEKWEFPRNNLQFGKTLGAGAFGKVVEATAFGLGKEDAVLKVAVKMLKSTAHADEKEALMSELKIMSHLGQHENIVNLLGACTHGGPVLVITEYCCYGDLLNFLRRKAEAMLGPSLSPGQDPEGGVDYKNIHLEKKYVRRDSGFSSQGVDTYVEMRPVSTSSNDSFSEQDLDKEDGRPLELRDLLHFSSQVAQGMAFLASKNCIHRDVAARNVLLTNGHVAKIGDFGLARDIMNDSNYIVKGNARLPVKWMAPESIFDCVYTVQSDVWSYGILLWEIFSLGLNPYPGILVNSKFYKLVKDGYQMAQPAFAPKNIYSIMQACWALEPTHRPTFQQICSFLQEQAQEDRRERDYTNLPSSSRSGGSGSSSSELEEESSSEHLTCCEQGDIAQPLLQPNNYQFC
Chain of PAK6(h) (Q9NQU5 whole entry): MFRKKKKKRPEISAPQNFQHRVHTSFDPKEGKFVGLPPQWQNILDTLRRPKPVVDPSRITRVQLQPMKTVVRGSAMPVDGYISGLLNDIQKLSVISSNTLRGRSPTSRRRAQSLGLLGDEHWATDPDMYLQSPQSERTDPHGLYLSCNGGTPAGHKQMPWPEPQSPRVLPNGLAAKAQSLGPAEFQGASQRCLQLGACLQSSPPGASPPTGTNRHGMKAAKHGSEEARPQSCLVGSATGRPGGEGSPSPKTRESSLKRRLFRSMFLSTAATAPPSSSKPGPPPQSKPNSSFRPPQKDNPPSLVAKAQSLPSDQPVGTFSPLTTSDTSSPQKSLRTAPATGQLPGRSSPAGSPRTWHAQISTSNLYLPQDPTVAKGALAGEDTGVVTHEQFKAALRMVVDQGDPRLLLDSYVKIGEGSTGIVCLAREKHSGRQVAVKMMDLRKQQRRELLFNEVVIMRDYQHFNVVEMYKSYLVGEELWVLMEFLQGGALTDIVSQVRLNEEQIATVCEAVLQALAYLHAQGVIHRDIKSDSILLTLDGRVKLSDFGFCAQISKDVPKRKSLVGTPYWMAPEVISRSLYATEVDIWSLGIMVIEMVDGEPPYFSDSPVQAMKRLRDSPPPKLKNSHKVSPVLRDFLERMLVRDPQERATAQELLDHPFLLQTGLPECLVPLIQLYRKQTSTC
T1 sequence (Q9P1W9 whole entry): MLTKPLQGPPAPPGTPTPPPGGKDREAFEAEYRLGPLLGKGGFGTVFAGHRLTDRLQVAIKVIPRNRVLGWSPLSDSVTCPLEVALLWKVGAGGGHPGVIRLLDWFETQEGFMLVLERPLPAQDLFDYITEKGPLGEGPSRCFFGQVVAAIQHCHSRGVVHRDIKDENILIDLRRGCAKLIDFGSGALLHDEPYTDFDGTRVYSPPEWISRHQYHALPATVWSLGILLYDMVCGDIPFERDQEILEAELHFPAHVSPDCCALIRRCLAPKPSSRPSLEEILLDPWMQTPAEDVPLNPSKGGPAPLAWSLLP
Chain of EphB2(h) (P29323 whole entry): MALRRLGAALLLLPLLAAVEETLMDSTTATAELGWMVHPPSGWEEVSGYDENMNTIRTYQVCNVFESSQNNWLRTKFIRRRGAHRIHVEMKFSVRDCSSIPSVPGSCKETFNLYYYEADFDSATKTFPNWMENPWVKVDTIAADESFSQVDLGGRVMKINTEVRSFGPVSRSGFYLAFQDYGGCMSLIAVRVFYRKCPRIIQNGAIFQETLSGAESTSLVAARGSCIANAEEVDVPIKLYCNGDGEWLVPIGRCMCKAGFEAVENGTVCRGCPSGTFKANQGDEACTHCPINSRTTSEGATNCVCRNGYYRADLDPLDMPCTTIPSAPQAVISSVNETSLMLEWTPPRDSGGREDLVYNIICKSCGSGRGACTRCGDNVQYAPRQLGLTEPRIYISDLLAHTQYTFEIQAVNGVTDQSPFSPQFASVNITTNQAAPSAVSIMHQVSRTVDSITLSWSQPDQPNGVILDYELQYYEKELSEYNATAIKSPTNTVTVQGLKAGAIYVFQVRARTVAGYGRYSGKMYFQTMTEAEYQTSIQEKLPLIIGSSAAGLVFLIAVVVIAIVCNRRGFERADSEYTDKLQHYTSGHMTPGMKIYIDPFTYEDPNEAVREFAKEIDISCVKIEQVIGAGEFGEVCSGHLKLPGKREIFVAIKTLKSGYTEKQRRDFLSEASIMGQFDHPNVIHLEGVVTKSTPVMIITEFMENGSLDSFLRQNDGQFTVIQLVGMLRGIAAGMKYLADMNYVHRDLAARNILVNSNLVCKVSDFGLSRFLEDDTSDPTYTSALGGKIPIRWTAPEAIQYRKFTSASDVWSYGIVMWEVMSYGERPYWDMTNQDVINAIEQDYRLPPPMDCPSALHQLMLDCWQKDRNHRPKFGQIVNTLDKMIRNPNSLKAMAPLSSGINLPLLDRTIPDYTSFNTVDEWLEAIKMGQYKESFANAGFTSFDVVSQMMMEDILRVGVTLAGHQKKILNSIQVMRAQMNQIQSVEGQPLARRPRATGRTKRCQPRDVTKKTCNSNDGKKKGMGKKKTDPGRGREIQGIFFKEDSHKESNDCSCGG
T5 sequence (P53779 whole entry): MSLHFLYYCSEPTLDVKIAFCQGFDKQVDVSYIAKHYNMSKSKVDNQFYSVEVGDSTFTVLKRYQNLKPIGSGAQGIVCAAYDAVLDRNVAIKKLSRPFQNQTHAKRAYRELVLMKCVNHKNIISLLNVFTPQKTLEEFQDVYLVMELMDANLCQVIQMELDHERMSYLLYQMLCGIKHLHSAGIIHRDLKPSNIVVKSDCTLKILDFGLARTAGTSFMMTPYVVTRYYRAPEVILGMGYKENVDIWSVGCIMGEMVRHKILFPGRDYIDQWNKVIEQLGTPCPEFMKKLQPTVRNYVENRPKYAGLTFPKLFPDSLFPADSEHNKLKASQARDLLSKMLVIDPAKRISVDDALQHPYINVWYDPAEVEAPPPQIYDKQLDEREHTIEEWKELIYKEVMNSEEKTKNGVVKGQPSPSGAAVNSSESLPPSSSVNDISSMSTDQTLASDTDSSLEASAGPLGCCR
T9 sequence (Q04759 whole entry): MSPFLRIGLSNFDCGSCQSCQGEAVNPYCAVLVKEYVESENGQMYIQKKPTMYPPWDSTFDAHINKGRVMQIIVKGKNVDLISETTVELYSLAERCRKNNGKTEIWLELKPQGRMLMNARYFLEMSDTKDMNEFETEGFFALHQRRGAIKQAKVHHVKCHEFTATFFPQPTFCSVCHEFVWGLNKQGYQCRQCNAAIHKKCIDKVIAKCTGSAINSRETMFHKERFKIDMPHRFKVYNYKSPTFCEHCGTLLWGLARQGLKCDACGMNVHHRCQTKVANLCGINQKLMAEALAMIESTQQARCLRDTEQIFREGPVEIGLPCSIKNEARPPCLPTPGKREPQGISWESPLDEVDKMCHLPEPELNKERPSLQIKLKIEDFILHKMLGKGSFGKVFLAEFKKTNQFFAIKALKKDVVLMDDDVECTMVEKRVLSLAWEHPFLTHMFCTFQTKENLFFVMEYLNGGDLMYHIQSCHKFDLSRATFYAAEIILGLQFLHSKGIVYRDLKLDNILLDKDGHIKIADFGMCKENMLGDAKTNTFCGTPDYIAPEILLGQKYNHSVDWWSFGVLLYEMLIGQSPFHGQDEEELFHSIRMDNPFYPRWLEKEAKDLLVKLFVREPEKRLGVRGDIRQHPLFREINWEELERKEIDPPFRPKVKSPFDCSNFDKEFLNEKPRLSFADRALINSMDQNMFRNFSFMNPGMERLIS
T6 sequence (O43318 whole entry): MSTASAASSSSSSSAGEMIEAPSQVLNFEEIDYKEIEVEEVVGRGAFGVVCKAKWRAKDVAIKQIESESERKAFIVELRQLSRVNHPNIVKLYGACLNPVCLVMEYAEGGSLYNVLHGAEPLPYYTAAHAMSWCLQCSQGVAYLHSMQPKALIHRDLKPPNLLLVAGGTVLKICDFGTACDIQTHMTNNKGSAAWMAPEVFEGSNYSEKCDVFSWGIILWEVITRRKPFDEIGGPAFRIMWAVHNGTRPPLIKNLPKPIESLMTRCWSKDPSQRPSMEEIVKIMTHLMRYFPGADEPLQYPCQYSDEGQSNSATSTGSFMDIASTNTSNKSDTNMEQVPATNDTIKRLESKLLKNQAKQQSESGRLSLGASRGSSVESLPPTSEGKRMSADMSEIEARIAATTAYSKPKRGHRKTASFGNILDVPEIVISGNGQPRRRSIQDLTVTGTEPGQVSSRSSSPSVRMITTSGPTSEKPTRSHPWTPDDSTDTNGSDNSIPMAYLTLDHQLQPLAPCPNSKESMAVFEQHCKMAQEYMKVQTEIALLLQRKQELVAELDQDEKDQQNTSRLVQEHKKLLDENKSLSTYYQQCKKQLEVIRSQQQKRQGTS

Regarding `Oc1ccc(/C=C/c2cc(O)cc(O)c2)cc1` [Res, resveratrol], the remaining activity at 20 µM at EphB2(h) amounted to 113 ± 1%; on Pim-2, 14 ± 2%; at PI 3-Kinaseβ(h), 107 ± 1%; at Aurora-A(h), 65 ± 1%; at ALK4(h) it was 110 ± 3%; on Flt1(h), 52 ± 1%. In addition, the remaining activity at 20 µM on CDK7/cyclinH/MAT1(h) was determined as 95 ± 1%; at JNK3(h), 98 ± 3%; on TAK1(h) it was 105 ± 3%; at PDGFRα(h), 114 ± 2%; at IGF-1R(h), 75%; at EGFR(h), 90 ± 5%. For the same molecule, the remaining activity at 20 µM was 103 ± 3% at PAK6(h); 99 ± 5% on PKCθ(h); 61 ± 2% on Fms(h); 77 ± 2% at CDK5/p35(h); 31 ± 3% at TrkA(h); 71 ± 3% on DAPK1(h).
